From patent US12319655B2, “RAF kinase inhibitors and methods of use thereof” (Deciphera Pharmaceuticals, LLC, priority 2021, dated 2025)

Assays:
[1] = test system: A375 cells; test: A375 Cell Proliferation Assay (2); type: cell-based; conditions: Homo sapiens, A-375
Procedure: A375 Cell Proliferation Assay (2)
A375 cells (catalog (#CRL-1619) are obtained from the American Type Culture Collect (ATTC, Manassas, VA). Briefly, cells were grown in DMEM High Glucose supplemented with 10% characterized fetal bovine serum (Invitrogen, Carlsbad, CA) and 1% Penicillin/Streptomycin/L-Glutamine at 37° C., 5% CO2, and 95% humidity. Cells are expanded until reaching 70-95% confluency at which point they are sub-cultured or harvested for assay use. Using the Beckman Coulter Echo 650, a serial dilution of test compound is dispensed into a 384-well black clear bottom plate in triplicate. Six hundred twenty-five cells are added per well in 50 μL complete growth medium in the 384-well plate. Plates are incubated for 67-72 h at 37° C., 5% CO2, and 95% humidity. At the end of the incubation, 10 μL of a 440 μM solution of resazurin (Sigma, St. Louis, MO) in PBS is added to each well of the plate and plates are incubated for an additional 3-6 h at 37° C., 5% CO2, and 95% humidity. Plates are read on a Synergy2 or equivalent reader (Biotek, Winooski VT) using an excitation of 540 nm and an emission of 600 nm. Data is analyzed using Prism software (GraphPad, San Diego, CA) to calculate IC50 values.

[2] = biological target: A-Raf kinase (SEQ. ID No: 1) (Homo sapiens (Human), UniProt P10398, Y301D/Y302D); test: Biochemical Assay for A-Raf (2); conditions: Table J, biochemical assay (2); read-out: ARAF (2)
Procedure: Biochemical Assay for A-Raf (2)
Activity of A-Raf kinase (SEQ. ID No: 1) was determined spectroscopically using a coupled pyruvate kinase/lactate dehydrogenase assay that continuously monitors the ATP hydrolysis-dependent oxidation of NADH (e.g., Schindler et al., Science, 2000, 289, 1938-1942). Assays were conducted in 384-well plates (25 μL final volume) using 20 nM A-Raf (Eurofins), 1.5 units pyruvate kinase, 2.1 units lactate dehydrogenase, 1 mM phosphoenol pyruvate, 0.7 mM NADH, 100 nM MEK (SignalChem), and 1 mM ATP in assay buffer (100 mM Tris, pH 7.5, 15 mM MgCl2, 0.5 mM DTT, 0.1% octyl-glucoside, 0.002% (w/v) BSA, and 0.002% Triton X-100). Inhibition of A-Raf was measured by adding serial diluted test compound (final assay concentration of 1% DMSO). A decrease in absorption at 340 nm was monitored hourly for 4 h at 30° C. on a multi-mode microplate reader (BioTek). The reaction rate was calculated using the 3 to 4 h time frame. The reaction rate at each concentration of compound was converted to percent inhibition using controls (i.e., reaction with no test compound and reaction with a known inhibitor) and IC50 values were calculated by fitting a four-parameter sigmoidal curve to the data using Prism (GraphPad software).

Chain of A-Raf kinase (SEQ. ID No: 1) (P10398 other isoform, or with tags, fused parts or gaps Y301D (already in the parent)/Y302D (already in the parent)): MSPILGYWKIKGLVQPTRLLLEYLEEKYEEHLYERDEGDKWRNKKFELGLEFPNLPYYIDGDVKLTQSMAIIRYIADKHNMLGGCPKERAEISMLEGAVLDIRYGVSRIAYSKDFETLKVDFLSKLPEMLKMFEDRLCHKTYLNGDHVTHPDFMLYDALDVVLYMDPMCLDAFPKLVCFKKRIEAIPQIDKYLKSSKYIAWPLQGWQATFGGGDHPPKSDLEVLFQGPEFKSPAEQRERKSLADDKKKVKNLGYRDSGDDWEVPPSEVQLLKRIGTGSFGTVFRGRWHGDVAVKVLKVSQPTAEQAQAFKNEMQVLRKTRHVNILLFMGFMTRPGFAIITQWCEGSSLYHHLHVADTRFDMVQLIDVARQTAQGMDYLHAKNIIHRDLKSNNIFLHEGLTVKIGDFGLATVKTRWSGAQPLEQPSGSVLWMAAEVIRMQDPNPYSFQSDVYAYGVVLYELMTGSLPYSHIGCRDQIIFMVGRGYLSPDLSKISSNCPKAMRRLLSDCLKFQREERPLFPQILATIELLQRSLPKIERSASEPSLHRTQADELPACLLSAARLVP

Row | Structure (SMILES) | IC50 [1] [nM] | IC50 [2] [nM]
1 | CNC(=N)c1cc(-c2cc(-c3cc(NC(=O)c4ccnc(C(C)(C)F)c4)ccc3C)ccn2)ccn1 [Example 452] | 100 to 500 | 1000 to 10000
2 | Cc1ccc(NC(=O)c2ccnc(C(C)(C)F)c2)cc1-c1ccnc(-c2ccnc(C(=O)NCCN(C)C)c2)c1 [Example 453] | 100 to 500 | 1000 to 10000
3 | Cc1ncc(NC(=O)c2ccnc(C(C)(C)F)c2)cc1-c1ccnc(-c2ccnc(NC(=O)C3CC3)c2)c1 [Example 454] | ≤ 100 | 500 to 1000
4 | Cc1ccc(NC(=O)c2ccnc(C(C)(C)F)c2)cc1-c1ccnc(-c2ccnc(NC(=O)C3CC3)c2)c1 [Example 455] | ≤ 100 | 100 to 500
5 | Cc1ccc(NC(=O)c2ccnc(C(C)(C)C#N)c2)cc1-c1ccnc(-c2ccnc(NC(=O)C3CC3)c2)c1 [Example 456] | ≤ 100 | 100 to 500
6 | Cc1ccc(NC(=O)c2ccnc(C3(C#N)CC3)c2)cc1-c1ccnc(-c2ccnc(NC(=O)C3CC3)c2)c1 [Example 457] | ≤ 100 | 100 to 500
7 | Cc1ccc(NC(=O)c2ccnc(C3CC3)c2)cc1-c1ccnc(-c2ccnc(NC(=O)C3CC3)c2)c1 [Example 458] | 100 to 500 | 100 to 500
8 | Cc1ccc(NC(=O)c2ccnc(C(C)(F)F)c2)cc1-c1ccnc(-c2ccnc(NC(=O)C3CC3)c2)c1 [Example 459] | ≤ 100 | 100 to 500
9 | CNC(=O)c1cc(-c2cc(-c3cc(NC(=O)c4ccnc(C5CC5)c4)ccc3C)ccn2)ccn1 [Example 460] | 100 to 500 | 500 to 1000
10 | Cc1ncc(NC(=O)c2ccnc(C3(C#N)CC3)c2)cc1-c1ccnc(-c2ccnc(NC(=O)C3CC3)c2)c1 [Example 461] | ≤ 100 | 100 to 500
11 | CNC(=O)c1cc(-c2cc(-c3cc(NC(=O)c4ccnc(C5CC5)c4)cnc3C)ccn2)ccn1 [Example 462] | 1000 to 10000 | 1000 to 10000
12 | CNC(=O)c1cc(-c2cc(-c3cc(NC(=O)c4ccnc(C(C)(F)F)c4)cnc3C)ccn2)ccn1 [Example 463] | 500 to 1000 | 1000 to 10000
13 | CNC(=O)c1cc(-c2cc(-c3cc(NC(=O)c4ccnc(C5(C#N)CC5)c4)cnc3C)ccn2)ccn1 [Example 464] | 100 to 500 | 100 to 500
14 | CNC(=O)c1cc(-c2cc(-c3cc(NC(=O)c4ccnc(C(C)C)c4)cnc3C)ccn2)ccn1 [Example 465] | 500 to 1000 | 1000 to 10000
15 | Cc1ncc(NC(=O)c2ccnc(C(C)(F)F)c2)cc1-c1ccnc(-c2ccnc(NC(=O)C3CC3)c2)c1 [Example 466] | 100 to 500 | 500 to 1000
16 | Cc1ccc(NC(=O)c2ccnc(C(C)C)c2)cc1-c1ccnc(-c2ccnc(NC(=O)C3CC3)c2)c1 [Example 467] | ≤ 100 | 100 to 500
17 | Cc1ncc(NC(=O)c2ccnc(C(C)C)c2)cc1-c1ccnc(-c2ccnc(NC(=O)C3CC3)c2)c1 [Example 468] | 100 to 500 | 100 to 500
18 | CNC(=O)c1cc(-c2cc(-c3cc(NC(=O)c4ccnc(C(C)(C)F)c4)ccc3C)c(F)cn2)ccn1 [Example 469] | 100 to 500 | 1000 to 10000
19 | CNC(=O)c1cc(-c2cc(-c3cc(NC(=O)c4ccnc(C(C)(C)F)c4)ccc3C)cc(C)n2)ccn1 [Example 470] | 100 to 500 | 1000 to 10000
20 | CNC(=O)c1cc(-c2cc(-c3cc(NC(=O)c4ccnc(C(C)(C)F)c4)ccc3C(F)(F)F)ccn2)ccn1 [Example 471] | 1000 to 10000 | 100 to 500
21 | CNC(=O)c1cc(-c2cc(-c3cc(NC(=O)c4ccnc(C(C)(C)F)c4)ccc3C)c(C)cn2)ccn1 [Example 472] | 100 to 500 | 1000 to 10000
22 | CNC(=O)c1cc(-c2cc(-c3cc(NC(=O)c4ccnc(C(C)(C)F)c4)ccc3C)cnn2)ccn1 [Example 473] | ≤ 100 | 1000 to 10000
23 | CNC(=O)c1cc(-c2cc(-c3cc(NC(=O)c4ccnc(C(C)(C)F)c4)ccc3C)ncn2)ccn1 [Example 474] | ≤ 100 | 500 to 1000
24 | CNC(=O)c1cc(-c2cc(-c3cc(F)cc(NC(=O)c4ccnc(C(C)(C)F)c4)c3F)ccn2)ccn1 [Example 475] | 1000 to 10000 | 1000 to 10000
